Measurements published in US20130065757A1, “CHEMICAL COMPOUNDS” (Syngenta Limited, priority 2010, published 2013).

Experiments:
Type in all cases: in vivo
[1] = system: Alopecurus myosuroides (ALOMY); assay: Pre-emergence biological efficacy, glasshouse pot test; settings: 312 h, 1,000 g/ha, evaluated after 13 days, 100=total damage, 0=no damage, read-out: Percentage damage caused to weed species, pre-emergence, ALOMY
Protocol: (§1) Seeds of Alopecurus myosuroides (ALOMY), Setaria faberi (SETFA), Echinochloa crus-galli (ECHCG), Solanum nigrum (SOLNI), Amaranthus retroflexus (AMARE) and Ipomoea hederaceae (IPOHE) were sown in standard soil in pots. After cultivation for one day under controlled conditions in a glasshouse (at 24/16° C., day/night; 14 hours light; 65% humidity), the plants were sprayed with an aqueous spray solution derived from the formulation of the technical active ingredient in acetone/water (50:50) solution containing 0.5% Tween 20 (polyoxyethylene sorbitan monolaurate, CAS RN 9005-64-5) to give a final dose of 1000 g/ha of test compound.
(§2) The test plants were then grown under controlled conditions in the glasshouse (at 24/16° C., day/night; 14 hours light; 65% humidity) and watered twice daily. After 13 days the test was evaluated (100=total damage to plant; 0=no damage to plant).

[2] = system: Amaranthus retroflexus (AMARE); assay: as above; settings: 312 h, 1,000 g/ha, evaluated after 13 days, 100=total damage, 0=no damage, read-out: Percentage damage caused to weed species, pre-emergence, AMARE
Protocol: as §1, §2

[3] = system: Echinochloa crus-galli (ECHCG); assay: as above; settings: 312 h, 1,000 g/ha, evaluated after 13 days, 100=total damage, 0=no damage, read-out: Percentage damage caused to weed species, pre-emergence, ECHCG
Protocol: as §1, §2

[4] = system: Ipomoea hederaceae (IPOHE); assay: as above; settings: 312 h, 1,000 g/ha, evaluated after 13 days, 100=total damage, 0=no damage, read-out: Percentage damage caused to weed species, pre-emergence, IPOHE
Protocol: as §1, §2

Setaria faberi (SETFA) [5] = assay: as above; settings: 312 h, 1,000 g/ha, evaluated after 13 days, 100=total damage, 0=no damage, read-out: Percentage damage caused to weed species, pre-emergence, SETFA
Protocol: as §1, §2

Solanum nigrum (SOLNI) [6] = assay: as above; settings: 312 h, 1,000 g/ha, evaluated after 13 days, 100=total damage, 0=no damage, read-out: Percentage damage caused to weed species, pre-emergence, SOLNI
Protocol: as §1, §2

[7] = system: Alopecurus myosuroides (ALOMY); assay: Post-emergence biological efficacy, glasshouse pot test; settings: 312 h, 1,000 g/ha, post-emergence (sprayed after 8 days), evaluated after 13 days, 100=total damage, 0=no damage, read-out: Percentage damage caused to weed species, post-emergence, ALOMY
Protocol: as §1, with “8 days” for “one day”
(§3) The test plants were then grown on under controlled conditions in a glasshouse (at 24/16° C., day/night; 14 hours light; 65% humidity) and watered twice daily. After 13 days the test was evaluated (100=total damage to plant; 0=no damage to plant).

[8] = system: Amaranthus retroflexus (AMARE); assay: as above; settings: 312 h, 1,000 g/ha, post-emergence (sprayed after 8 days), evaluated after 13 days, 100=total damage, 0=no damage, read-out: Percentage damage caused to weed species, post-emergence, AMARE
Protocol: as §1, with “8 days” for “one day”
as §3

[9] = system: Echinochloa crus-galli (ECHCG); assay: as above; settings: 312 h, 1,000 g/ha, post-emergence (sprayed after 8 days), evaluated after 13 days, 100=total damage, 0=no damage, read-out: Percentage damage caused to weed species, post-emergence, ECHCG
Protocol: as §1, with “8 days” for “one day”
as §3

[10] = system: Ipomoea hederaceae (IPOHE); assay: as above; settings: 312 h, 1,000 g/ha, post-emergence (sprayed after 8 days), evaluated after 13 days, 100=total damage, 0=no damage, read-out: Percentage damage caused to weed species, post-emergence, IPOHE
Protocol: as §1, with “8 days” for “one day”
as §3

Setaria faberi (SETFA) [11] = assay: as above; settings: 312 h, 1,000 g/ha, post-emergence (sprayed after 8 days), evaluated after 13 days, 100=total damage, 0=no damage, read-out: Percentage damage caused to weed species, post-emergence, SETFA
Protocol: as §1, with “8 days” for “one day”
as §3

Solanum nigrum (SOLNI) [12] = assay: as above; settings: 312 h, 1,000 g/ha, post-emergence (sprayed after 8 days), evaluated after 13 days, 100=total damage, 0=no damage, read-out: Percentage damage caused to weed species, post-emergence, SOLNI
Protocol: as §1, with “8 days” for “one day”
as §3

## C=Cc1c(N)cc(Cl)nc1C(=O)OC [Compound 2-4, 4-amino-6-chloro-3-ethenyl-pyridine-2-carboxylic acid methyl ester]
[1]
  pest or weed control at 1000 g/ha: 90%
[2]
  pest or weed control at 1000 g/ha: 100%
[3]
  pest or weed control at 1000 g/ha: 90%
[4]
  pest or weed control at 1000 g/ha: 100%
Setaria faberi (SETFA) [5]
  pest or weed control at 1000 g/ha: 90%
Solanum nigrum (SOLNI) [6]
  pest or weed control at 1000 g/ha: 100%
[7]
  pest or weed control at 1000 g/ha: 90%
[8]
  pest or weed control at 1000 g/ha: 100%
[9]
  pest or weed control at 1000 g/ha: 80%
[10]
  pest or weed control at 1000 g/ha: 80%
Setaria faberi (SETFA) [11]
  pest or weed control at 1000 g/ha: 100%
Solanum nigrum (SOLNI) [12]
  pest or weed control at 1000 g/ha: 100%

## C=CCc1c(N)cc(Cl)nc1C(=O)OC [Compound 2-7, 4-amino-6-chloro-3-(prop-2-enyl)-pyridine-2-carboxylic acid methyl ester]
[1]
  pest or weed control at 1000 g/ha: 30%
[2]
  pest or weed control at 1000 g/ha: 90%
[3]
  pest or weed control at 1000 g/ha: 40%
[4]
  pest or weed control at 1000 g/ha: 70%
Setaria faberi (SETFA) [5]
  pest or weed control at 1000 g/ha: 40%
Solanum nigrum (SOLNI) [6]
  pest or weed control at 1000 g/ha: 90%
[7]
  pest or weed control at 1000 g/ha: 20%
[8]
  pest or weed control at 1000 g/ha: 90%
[9]
  pest or weed control at 1000 g/ha: 10%
[10]
  pest or weed control at 1000 g/ha: 50%
Setaria faberi (SETFA) [11]
  pest or weed control at 1000 g/ha: 30%
Solanum nigrum (SOLNI) [12]
  pest or weed control at 1000 g/ha: 90%

## C=C(C)Cc1c(N)cc(Cl)nc1C(=O)OC [Compound 2-8, 4-amino-6-chloro-3-(2-methyl-prop-2-enyl)-pyridine-2-carboxylic acid methyl ester]
[1]
  pest or weed control at 1000 g/ha: 10%
[2]
  pest or weed control at 1000 g/ha: 40%
[3]
  pest or weed control at 1000 g/ha: 0%
[4]
  pest or weed control at 1000 g/ha: 80%
Setaria faberi (SETFA) [5]
  pest or weed control at 1000 g/ha: 10%
Solanum nigrum (SOLNI) [6]
  pest or weed control at 1000 g/ha: 80%
[7]
  pest or weed control at 1000 g/ha: 10%
[8]
  pest or weed control at 1000 g/ha: 70%
[9]
  pest or weed control at 1000 g/ha: 0%
[10]
  pest or weed control at 1000 g/ha: 50%
Setaria faberi (SETFA) [11]
  pest or weed control at 1000 g/ha: 10%
Solanum nigrum (SOLNI) [12]
  pest or weed control at 1000 g/ha: 80%

## C=Cc1c(C(=O)OC)nc(Cl)c(F)c1N [Compound 2-12, 4-amino-6-chloro-3-ethenyl-5-fluoro-pyridine-2-carboxylic acid methyl ester]
[1]
  pest or weed control at 1000 g/ha: 100%
[2]
  pest or weed control at 1000 g/ha: 100%
[3]
  pest or weed control at 1000 g/ha: 100%
[4]
  pest or weed control at 1000 g/ha: 100%
Setaria faberi (SETFA) [5]
  pest or weed control at 1000 g/ha: 90%
Solanum nigrum (SOLNI) [6]
  pest or weed control at 1000 g/ha: 100%
[7]
  pest or weed control at 1000 g/ha: 80%
[8]
  pest or weed control at 1000 g/ha: 100%
[9]
  pest or weed control at 1000 g/ha: 80%
[10]
  pest or weed control at 1000 g/ha: 80%
Setaria faberi (SETFA) [11]
  pest or weed control at 1000 g/ha: 90%
Solanum nigrum (SOLNI) [12]
  pest or weed control at 1000 g/ha: 100%

## C=Cc1c(C(=O)OC)nc(Cl)c(Cl)c1N [Compound 2-20, 4-amino-5,6-dichloro-3-ethenyl-1-pyridine-2-carboxylic acid methyl ester]
[1]
  pest or weed control at 1000 g/ha: 90%
[2]
  pest or weed control at 1000 g/ha: 100%
[3]
  pest or weed control at 1000 g/ha: 90%
[4]
  pest or weed control at 1000 g/ha: 100%
Setaria faberi (SETFA) [5]
  pest or weed control at 1000 g/ha: 90%
Solanum nigrum (SOLNI) [6]
  pest or weed control at 1000 g/ha: 100%
[7]
  pest or weed control at 1000 g/ha: 90%
[8]
  pest or weed control at 1000 g/ha: 100%
[9]
  pest or weed control at 1000 g/ha: 90%
[10]
  pest or weed control at 1000 g/ha: 100%
Setaria faberi (SETFA) [11]
  pest or weed control at 1000 g/ha: 90%
Solanum nigrum (SOLNI) [12]
  pest or weed control at 1000 g/ha: 100%
